In PubChem BioAssay (NCI) one finds TGI and GI50 data, which are given here for 32 compounds.

Test systems include HOP-18 NSCLC; KM20L2 colon; M19-MEL melanoma; RXF-631 renal; DMS 114 small cell lung; BT-549 breast; MDA-MB-231 breast; MDA-N; NCI/ADR-RES ovarian; P388 leukemia; P388/ADR leukemia; SN12K1 renal.
Holding throughout (assay): NCI tumour cell line growth inhibition, 48 h

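96-well plates; 48 h exposure; 5 concentrations. Endpoints by linear interpolation between flanking doses. Not reached: highest tested concentration assigned. GI50: concentration for 50% inhibition of growth. TGI denotes the concentration required for complete inhibition of growth.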

Consider `COc1ccccc1NC(=O)C(CC(C(=O)Nc1ccccc1OC)/C(C)=N/Nc1ccc([N+](=O)[O-])cc1[N+](=O)[O-])/C(C)=N/Nc1ccc([N+](=O)[O-])cc1[N+](=O)[O-]` (stereo not drawn), for which the TGI in the assay with HOP-18 NSCLC, in the assay with KM20L2 colon, with M19-MEL melanoma and in the assay on RXF-631 renal was more than 100 µM each time.
For the compound `COc1ccc(C2CCc3cc4c(cc3/C2=N/OC(C)=O)OCO4)cc1OC` (stereo not drawn), the TGI with DMS 114 small cell lung is 51.9 µM; in the assay with HOP-18 NSCLC it was more than 100 µM; in the assay with KM20L2 colon it was 72.3 µM; in the assay on M19-MEL melanoma, 71 µM; in the assay with RXF-631 renal, more than 100 µM.
Regarding `CCOC(=O)[C@H]1Nc2ccccc2C2c3ccccc3CC21` (stereo partly drawn), the TGI in the assay on DMS 114 small cell lung, in the assay with KM20L2 colon, with M19-MEL melanoma and with RXF-631 renal was more than 100 µM each time.
For `Nc1ccc(S(=O)(=O)Nc2cnc3c(Cl)cccc3n2)cc1`, the GI50 is 220 µM in the assay with BT-549 breast, 78.1 µM with MDA-MB-231 breast and more than 66.9 µM in the assay with MDA-N. For the same compound, the TGI in the assay on BT-549 breast was more than 750 µM; in the assay on DMS 114 small cell lung, 202 µM; with HOP-18 NSCLC it was more than 750 µM; in the assay with KM20L2 colon, more than 750 µM; in the assay with M19-MEL melanoma, more than 625 µM; in the assay with MDA-MB-231 breast it was more than 750 µM. The TGI in the assay on MDA-N was more than 566 µM; with NCI/ADR-RES ovarian, 629 µM; in the assay with P388 leukemia it was more than 750 µM; in the assay on P388/ADR leukemia, more than 750 µM; in the assay with SN12K1 renal it was 472 µM.
In the case of `CCCCCCCCCCCCCc1nn[nH]n1`, the TGI was 38.4 µM in the assay with DMS 114 small cell lung; 28.2 µM with HOP-18 NSCLC; 37.4 µM with KM20L2 colon; 36.8 µM in the assay on M19-MEL melanoma; 29.3 µM in the assay with RXF-631 renal.
`CNC(=O)CN(CC(N)=O)C(N)=O`: the TGI in the assay with KM20L2 colon, in the assay with M19-MEL melanoma and in the assay with RXF-631 renal was more than 100 µM each time.
`Cc1ccc(NC(=O)CC(=O)N2N=C(N(CCC#N)c3cccc(C)c3)CC2c2ccccc2)cc1` (stereo not drawn): the TGI in the assay on DMS 114 small cell lung, with HOP-18 NSCLC, in the assay on KM20L2 colon and with M19-MEL melanoma was more than 100 µM in each case.
On to `COc1cc2c(c(OC)c1OC)-c1ccc(SC)c(=O)cc1[C@@H](NC(=O)c1ccc(Cl)cc1)CC2`, for which the TGI was less than 0.01 µM in the assay on KM20L2 colon, more than 100 µM in the assay with M19-MEL melanoma and more than 100 µM in the assay on RXF-631 renal.
Turning to `CN(C=O)/C=C/c1cc(O)ccc1O`, the TGI in the assay on DMS 114 small cell lung was more than 100 µM; in the assay with HOP-18 NSCLC, 31.4 µM; in the assay with KM20L2 colon it was more than 62.4 µM; with M19-MEL melanoma it was 44.9 µM; in the assay with RXF-631 renal it was more than 100 µM.
Regarding `COc1ccc(OC)c2c3c(ccc12)C(c1ccccc1)OC3=O` (stereo not drawn), the TGI with DMS 114 small cell lung, in the assay with HOP-18 NSCLC, in the assay with KM20L2 colon and in the assay with M19-MEL melanoma was more than 100 µM in each case.
Consider `N[C@@H]1CCCC[C@@H]1N.O=P([O-])([O-])CN(CP(=O)([O-])[O-])CP(=O)([O-])[O-].[Pt+2]`, for which the GI50 in the assay with HOP-18 NSCLC, in the assay with KM20L2 colon and with M19-MEL melanoma was more than 100 µM each time. Moreover, the TGI in the assay on HOP-18 NSCLC, with KM20L2 colon and in the assay on M19-MEL melanoma was more than 100 µM each time.
With `COc1cc(/C=C(\C#N)C(N)=C(C#N)C#N)cc(O)c1O`, the TGI in the assay with BT-549 breast, in the assay with DMS 114 small cell lung, in the assay on KM20L2 colon, in the assay with M19-MEL melanoma, in the assay on MDA-MB-231 breast and with MDA-N was more than 100 µM each time. This compound gave a TGI in the assay on NCI/ADR-RES ovarian of more than 100 µM.
Turning to `C[N+](C)(C)CC1CCCC(C[N+](C)(C)C)C1O` (stereo not drawn), the TGI in the assay with DMS 114 small cell lung, in the assay with HOP-18 NSCLC, in the assay with KM20L2 colon, in the assay on M19-MEL melanoma and in the assay on RXF-631 renal was more than 100 µM throughout.
Regarding `COC(=O)/C(=N/NC(N)=O)C(C(=O)OC)C(=O)C(=O)Nc1ccc(Cl)cc1` (stereo not drawn), the TGI in the assay on DMS 114 small cell lung, with HOP-18 NSCLC, in the assay with KM20L2 colon and with M19-MEL melanoma was more than 100 µM each time.
On to `FC1OC2OC1C(OCc1ccccc1)C(OCc1ccccc1)C2OCc1ccccc1` (stereo not drawn), for which the TGI in the assay with DMS 114 small cell lung was more than 100 µM; in the assay on HOP-18 NSCLC, 96.4 µM; in the assay with KM20L2 colon it was more than 100 µM; with M19-MEL melanoma, more than 100 µM; in the assay with RXF-631 renal it was more than 100 µM.
On to `COc1ccc(CCN=C2CCC(C(=O)NCCc3ccc(OC)c(OC)c3)N2)cc1OC` (stereo not drawn), for which the TGI in the assay on DMS 114 small cell lung, with HOP-18 NSCLC, in the assay with KM20L2 colon and with RXF-631 renal was more than 100 µM in each case.
In the case of `COc1nc(NC2OC(COC(C)=O)C(OC(C)=O)C(OC(C)=O)C2OC(C)=O)c(-c2csc(N)n2)c(=O)n1C` (stereo not drawn), the TGI in the assay with DMS 114 small cell lung, with HOP-18 NSCLC, in the assay on KM20L2 colon and in the assay with M19-MEL melanoma was more than 100 µM each time.
`O=C(Nc1cccc(NC(=O)c2cc(=O)c3ccccc3o2)n1)c1cc(=O)c2ccccc2o1`: the TGI in the assay with DMS 114 small cell lung was 92 µM; in the assay on KM20L2 colon, more than 100 µM; in the assay on M19-MEL melanoma, more than 100 µM; with RXF-631 renal, more than 100 µM.
Consider `O=C(c1ccc(Cl)cc1)C1OC12C(=O)Nc1ccccc12` (stereo not drawn), for which the TGI amounted to 31.4 µM with BT-549 breast; 26.2 µM in the assay with DMS 114 small cell lung; 27 µM with HOP-18 NSCLC; 41.3 µM in the assay on KM20L2 colon; 23.3 µM with M19-MEL melanoma; 50.5 µM with MDA-MB-231 breast. In addition, the TGI in the assay with MDA-N worked out at 14.5 µM; in the assay with RXF-631 renal it was 34.7 µM.
For the compound `CCOc1ccc(C(CN2CCOCC2)C(C)=O)cc1OC` (stereo not drawn), the TGI came to 34 µM with DMS 114 small cell lung, 30.2 µM with HOP-18 NSCLC, 35 µM in the assay on KM20L2 colon and 34.1 µM in the assay on M19-MEL melanoma.
For `CCCCCCCCCCCCCCCCOC(=O)c1cc(O)cc(C(=O)OCCCCCCCCCCCCCCCC)c1`, the TGI in the assay on DMS 114 small cell lung, in the assay with HOP-18 NSCLC, in the assay with KM20L2 colon, in the assay with M19-MEL melanoma and in the assay on RXF-631 renal was more than 100 µM each time.
For `C[C@@H]1C[C@]2(C[C@@H](C)C3[C@@H](CC4(C)[C@@H]5CCC6C(C)(C)OC(=O)C=C[C@]67C[C@@]5(CC[C@]34C)OO7)O2)OC1=O` (stereo partly drawn), the TGI in the assay with DMS 114 small cell lung and in the assay on HOP-18 NSCLC was more than 100 µM each time.
Take `COc1cc2cc3c4c(cc(OC)c(OC)c4c2cc1OC)CCN3C(=O)CCC(=O)NCCCN(C)C`: the TGI in the assay on DMS 114 small cell lung is more than 100 µM; in the assay with HOP-18 NSCLC, more than 100 µM; in the assay on KM20L2 colon it was 67 µM; with M19-MEL melanoma it was 55.4 µM.
For `COc1ccc2nc3ccccc3c(NCCCCN(C)CCCl)c2c1`, the TGI with BT-549 breast was found to be 1.98 µM; in the assay with KM20L2 colon, 0.478 µM; with M19-MEL melanoma, 0.602 µM; with RXF-631 renal, 0.367 µM.
Regarding `CCSC(SCC)=C1C(=O)N(c2ccccc2)N=C1C`, the values for the TGI in the assay with HOP-18 NSCLC, with KM20L2 colon and in the assay with M19-MEL melanoma were 29.4 µM, 30.5 µM and 1.83 µM, respectively.
Consider `O=C1c2ccccc2C(=O)c2nc3ccc(Cl)cc3cc21`, for which the TGI with DMS 114 small cell lung, with KM20L2 colon, with M19-MEL melanoma and with RXF-631 renal was more than 100 µM in each case.
For the compound `CN1CCc2c1nc(-c1ccc([N+](=O)[O-])cc1)c1c2N(C)CC1`, the TGI with DMS 114 small cell lung, in the assay on HOP-18 NSCLC, with KM20L2 colon, in the assay on M19-MEL melanoma and with RXF-631 renal was more than 100 µM in each case.
`C[C@]12CC[C@H](OC3CCCCO3)CC1=CC[C@@H]1C2CC[C@]2(C)/C(=N/O)CCC12` (stereo partly drawn): the values for the TGI in the assay with DMS 114 small cell lung, with HOP-18 NSCLC and in the assay with KM20L2 colon were 37.9 µM, 30.5 µM and 30.5 µM, respectively.
With `O=c1cc(-c2ccccn2)[nH]c2ccc(Cl)cc12`, the results for the GI50 with DMS 114 small cell lung and with KM20L2 colon were 13.9 µM and 40 µM, respectively. Further, the TGI in the assay with DMS 114 small cell lung is 49 µM; in the assay on HOP-18 NSCLC, more than 100 µM; in the assay with KM20L2 colon, more than 100 µM; in the assay on M19-MEL melanoma, more than 100 µM.
In the case of `COc1ccc(S(=O)(=O)N(C)CC(=O)O)cc1`, the TGI with HOP-18 NSCLC, in the assay with KM20L2 colon, in the assay on M19-MEL melanoma and with RXF-631 renal was more than 100 µM throughout.
Turning to `CC(=O)C1C(=O)N(C(C)C)C[C@@H]2CCC(=O)C[C@H]12` (stereo partly drawn), the TGI with DMS 114 small cell lung, with M19-MEL melanoma and in the assay on RXF-631 renal was more than 100 µM each time.
Consider `Cc1nc(-n2nc(-c3ccccc3)cc2-c2ccccc2)sc1C(/C=C/c1ccc([N+](=O)[O-])cc1)=N/NC(=O)c1ccncc1`, for which the TGI in the assay with DMS 114 small cell lung was 58.5 µM; with KM20L2 colon, more than 100 µM; in the assay with M19-MEL melanoma, 92.6 µM.
